The numbers were not newly measured in patent US11191849B2, “Compositions and methods for delivering messenger RNA” (ARBUTUS BIOPHARMA CORPORATION, priority 2016, dated 2021), which cites them from elsewhere.

As to `CC(C)C(=O)OCC(=O)[C@@]12O[C@H](C3CCCCC3)O[C@@H]1C[C@H]1[C@@H]3CCC4=CC(=O)C=C[C@]4(C)[C@H]3[C@@H](O)C[C@@]12C` [Ciclesonide], the “log P” value is roughly 5.3. On to `CCC(=O)O[C@]1(C(=O)CCl)[C@@H](C)C[C@H]2[C@@H]3CCC4=CC(=O)C=C[C@]4(C)[C@@]3(F)[C@@H](O)C[C@@]21C` [Clobetasol, clobetasol-17-propionate], for which the “log P” value was roughly 3.5. Regarding `CCCCCCCCCCCCCCCC(=O)OCC(=O)[C@@]1(O)[C@H](C)C[C@H]2[C@@H]3CCC4=CC(=O)C=C[C@]4(C)[C@@]3(F)[C@@H](O)C[C@@]21C` [Dex-P, Dexamethasone 21-palmitate], the “log P” value is on record as roughly 9.

For orientation: log P means a log measure of how a compound divides between an organic and an aqueous phase.
